# Biological target: hERG (Homo sapiens, UniProt Q12809)
# Test: Two-electrode voltage clamp of hERG in Xenopus oocytes
# Format: cell-based
# Settings: 10 µM CP1
# Description: Since CP1 has a similar effect to PIP2 in mediating VSD-pore coupling in KCNQ channels, we tested if CP1 has effects on other ion channels that are also sensitive to PIP2 or are voltage activated and share general structural features of the VSD and the pore with KCNQ. […] On the other hand, NaV1.5 and KV4.2 are voltage-gated ion channels.
# Fig. 6 Effects of CP1 on other ion channels expressed in Xenopus oocytes. a Currents of Kir1.1, CaV1.2, NaV1.5, hERG, and KV4.2 before and after application of 10 µM CP1, respectively. The voltages for holding, test, and returning pulses were Kir1.1, 0 mV, −100 to +60 mV, 0; CaV1.2, −100 mV, −100 to +60, −100 mV; NaV1.5, −100, −120 to +40 mV, −120 mV; […]; KV4.2, −80 mV, −100 mV to +80 mV, −40 mV; HCN4, −30 mV, −30 to −140 mV, −120 mV. b Current–voltage relations of Kir1.1 channel in the absence or presence of 10 µM CP1 (n = 7). c–g G–V relations of indicated channels with and without 10 µM CP1. The ΔV1/2 of G–V relations (mV) are CaV1.2, 3.38 ± 0.71 mV (c); NaV1.5, −2.26 ± 0.95 mV (d); hERG, 6.85 ± 1.81 mV (e); KV 4.2, −2.26 ± 2.88 mV (f); HCN4, 17.13 ± 1.59 mV (g).
# Complementary DNA (cDNA) encoding human KCNQ1 (UniProtKB/Swiss‐Prot under accession no. P51787), KCNQ2 (O43526), KCNQ3 (O43525), KCNE1 (P15382), Kir1.1 (P48048), hERG (Q12809), KV4.2 (Q63881), NaV1.5 (Q14524), NaV β1 (Q07699), CaV1.2 (Q13936), CaV β1a (Q02641), CaV α2/δ1 (P54289), and HCN4 (Q9Y3Q4) were subcloned into oocyte expression vectors, respectively. Site-directed mutations of the KCNQ1 channel were all produced by overlap extension polymerase chain reaction (PCR) with high-fidelity Pfu polymerase (Stratagene, CA). The presence of the desired mutation was verified by sequencing the PCR-amplified regions. All the primer sequences used in this study are available in Supplementary Table 1. The complementary RNA (cRNA) of all these channels and mutations was transcribed in vitro with the T3, T7, or SP6 polymerase mMessage mMachine kit (Invitrogen, Thermo Fisher Scientific, MO).
# The whole-oocyte ionic currents were recorded with a GeneClamp 500B amplifier (Axon Instruments, CA) or iTEV90 amplifier (HEKA, Germany) and then sampled at 1 kHz and low-pass-filtered at 2 kHz. The Patchmaster software (HEKA, Germany) was used to acquire data. The Kir1.1 current was recorded with a high K^+ bath solution containing (in mM) 96 KCl, 4 NaCl, 1 CaCl2, 2 MgCl2, and 10 HEPES, pH 7.3–7.4. The HCN4 current was recorded in ND66 solution containing (in mM) 66 NaCl, 32 KCl, 1.8 CaCl2, 1 MgCl2, and 5 HEPES, pH 7.6. All the other potassium channels were recorded in ND96 solution. The currents of CaV1.2 channel were recorded in 40 mM Ba^2+ bath solution containing (in mM) 40 Ba(OH)2, 50 TEA-OH, 2 KOH, and 5 HEPES, adjusted to pH 7.4 with methanesulfonic acid. CP1 (DISODIUM 5-BROMO-2-[9-CHLORO-3-(SULFONATOOXY) NAPHTHO [1,2-B] THIEN-2-YL]-1H-INDOL-3-YL SULFATE, Sigma-Aldrich, MO) and Chromanol 293B (Sigma-Aldrich, MO) were dissolved in bath solutions. All the chemicals were purchased from Sigma-Aldrich. To measure the I–V relations of the Kir1.1 channel, the test voltage was set from −100 to +60 mV for 1 s with 20-mV increments. The test pulses were stepped from a holding potential of 0 mV and then stepped back to 0 mV. The HCN4 currents were recorded by a test pulse between −30 and −140 mV in 10-mV step from a holding potential of −30 mV. For all the other potassium channels and CaV1.2 channel, the holding potential was −80 or −100 mV, and the test pulse was applied with 10-mV increment, which was followed with a repolarization pulse at −40 mV before returning to the holding potential. The durations of test and the repolarization pulse vary for different channels to allow the activation and deactivation of the channel to reach their steady states.
# Chain of hERG (Q12809 whole entry): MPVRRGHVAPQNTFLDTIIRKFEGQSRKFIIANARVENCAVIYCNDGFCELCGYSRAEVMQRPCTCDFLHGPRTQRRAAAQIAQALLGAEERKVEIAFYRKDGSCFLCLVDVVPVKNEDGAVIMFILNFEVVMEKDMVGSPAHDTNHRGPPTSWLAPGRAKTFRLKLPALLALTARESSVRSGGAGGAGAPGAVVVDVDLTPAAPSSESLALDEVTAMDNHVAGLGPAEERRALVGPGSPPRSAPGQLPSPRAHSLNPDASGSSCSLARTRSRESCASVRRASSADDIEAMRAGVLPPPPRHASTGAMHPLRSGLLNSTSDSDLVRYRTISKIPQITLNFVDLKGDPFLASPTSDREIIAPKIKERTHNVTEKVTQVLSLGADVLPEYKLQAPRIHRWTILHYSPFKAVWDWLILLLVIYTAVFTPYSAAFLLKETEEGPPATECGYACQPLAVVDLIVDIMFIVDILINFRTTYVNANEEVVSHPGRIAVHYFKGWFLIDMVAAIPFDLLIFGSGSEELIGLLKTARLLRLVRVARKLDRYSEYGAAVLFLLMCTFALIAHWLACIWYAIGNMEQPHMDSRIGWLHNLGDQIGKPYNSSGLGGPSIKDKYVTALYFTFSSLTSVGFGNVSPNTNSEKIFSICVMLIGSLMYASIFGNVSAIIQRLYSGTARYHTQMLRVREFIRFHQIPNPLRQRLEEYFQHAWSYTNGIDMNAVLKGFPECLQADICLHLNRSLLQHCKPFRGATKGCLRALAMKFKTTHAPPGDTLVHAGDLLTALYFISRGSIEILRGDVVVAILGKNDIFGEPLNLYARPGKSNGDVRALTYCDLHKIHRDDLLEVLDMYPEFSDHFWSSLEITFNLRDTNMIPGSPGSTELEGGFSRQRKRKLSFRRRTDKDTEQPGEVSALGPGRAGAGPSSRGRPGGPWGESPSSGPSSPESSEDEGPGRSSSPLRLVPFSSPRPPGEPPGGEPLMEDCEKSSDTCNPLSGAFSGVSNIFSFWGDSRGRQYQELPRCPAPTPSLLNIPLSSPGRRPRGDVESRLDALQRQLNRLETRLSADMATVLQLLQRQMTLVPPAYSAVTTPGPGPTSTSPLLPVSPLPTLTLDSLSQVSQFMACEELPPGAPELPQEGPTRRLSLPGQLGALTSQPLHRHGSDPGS
smiles,measurement,setting,value
"O=S(=O)([O-])Oc1c(-c2sc3c(ccc4cccc(Cl)c43)c2OS(=O)(=O)[O-])[nH]c2ccc(Br)cc12.[Na+].[Na+] [CP1, DISODIUM 5-BROMO-2-[9-CHLORO-3-(SULFONATOOXY) NAPHTHO [1,2-B] THIEN-2-YL]-1H-INDOL-3-YL SULFATE]",ΔV1/2 of G–V relations,,6.85 ± 1.81 mV
same,G/Gmax Mean (Fig. 6e),voltage 0 mV,0.8601
same,G/Gmax Mean (Fig. 6e),voltage 10 mV,0.9576
same,G/Gmax Mean (Fig. 6e),voltage 20 mV,1.0000
same,G/Gmax Mean (Fig. 6e),voltage 30 mV,0.9916
same,G/Gmax Mean (Fig. 6e),voltage 40 mV,0.9932
same,G/Gmax Mean (Fig. 6e),voltage 50 mV,0.9886
same,G/Gmax Mean (Fig. 6e),voltage 60 mV,0.9837
same,G/Gmax Mean (Fig. 6e),voltage -10 mV,0.6448
same,G/Gmax Mean (Fig. 6e),voltage -20 mV,0.3564
same,G/Gmax Mean (Fig. 6e),voltage -30 mV,0.1368
same,G/Gmax Mean (Fig. 6e),voltage -40 mV,0.0404
same,G/Gmax Mean (Fig. 6e),voltage -50 mV,0.0144
same,G/Gmax Mean (Fig. 6e),voltage -60 mV,0.0098
same,G/Gmax Mean (Fig. 6e),voltage -70 mV,0.0091
same,G/Gmax Mean (Fig. 6e),voltage -80 mV,0.0089
same,G/Gmax Mean (Fig. 6e),voltage -90 mV,0.0084
same,G/Gmax Mean (Fig. 6e),voltage -100 mV,0.0080
same,G/Gmax Mean (Fig. 6e),voltage -110 mV,0.0069
same,G/Gmax Mean (Fig. 6e),voltage -120 mV,0.0065

# Reference: paper PMC7367283, “A PIP2 substitute mediates voltage sensor-pore coupling in KCNQ activation” (Communications Biology, 2020)
